Results as given in patent US12383556B2, “Methods of treating Sjögren's syndrome using a Bruton's tyrosine kinase inhibitor” (NOVARTIS AG, priority 2019, dated 2025).
Read-outs that look alike come from different tables or passages of the source.

Assays:
BTK [1] = molecular target: T1, BTK (Rattus norvegicus, UniProt Q5S255); assay: BTK occupancy ex vivo immunoassay (biotinylated BTK probe) in tissues after oral dosing
T1 construct: total BTK relative protein levels were determined in lysates of selected tissues; from tissue; host or cells: rat spleen, blood, lymph nodes, lung (lysates)
T1 sequence (Q5S255 1-660): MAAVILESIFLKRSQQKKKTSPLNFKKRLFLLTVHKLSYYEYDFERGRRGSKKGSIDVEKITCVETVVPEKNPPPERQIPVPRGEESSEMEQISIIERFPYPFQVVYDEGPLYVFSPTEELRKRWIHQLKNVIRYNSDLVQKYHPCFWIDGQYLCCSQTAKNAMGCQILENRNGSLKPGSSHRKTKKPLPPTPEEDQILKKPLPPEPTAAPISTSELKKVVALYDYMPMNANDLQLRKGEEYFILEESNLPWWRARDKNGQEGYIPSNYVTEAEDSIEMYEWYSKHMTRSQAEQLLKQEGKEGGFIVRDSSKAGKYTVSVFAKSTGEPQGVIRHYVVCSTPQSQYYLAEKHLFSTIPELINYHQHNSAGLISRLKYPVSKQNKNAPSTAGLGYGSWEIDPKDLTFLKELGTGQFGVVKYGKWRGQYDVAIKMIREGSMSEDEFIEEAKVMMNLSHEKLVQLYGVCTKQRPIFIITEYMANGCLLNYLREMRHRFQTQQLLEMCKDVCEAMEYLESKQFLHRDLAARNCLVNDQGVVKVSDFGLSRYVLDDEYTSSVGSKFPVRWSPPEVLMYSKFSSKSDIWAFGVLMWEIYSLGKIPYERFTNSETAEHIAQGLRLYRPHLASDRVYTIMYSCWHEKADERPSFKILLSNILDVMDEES
Method: (§1) The in vivo PD effects of an irreversible BTK inhibitor like compound (I) are determined by the extent and duration of covalent BTK occupancy by the inhibitor. BTK occupancy after treatment with Compound of Formula (I) (also referenced to as Compound (I)) was measured in an ex vivo immunoassay. The fraction of unoccupied BTK protein was assayed after in vitro incubation with a covalent biotinylated BTK probe, since compound (I) and the probe bind to BTK in a mutually exclusive manner. Unoccupied BTK, as well as total BTK relative protein levels were determined in lysates of selected tissues and levels of unoccupied BTK were normalized to total BTK protein levels in the same samples.
(§2) From the experimental data it was apparent that a short transient systemic exposure of compound (I) is sufficient to achieve full BTK occupancy in several tissues at low oral doses of 1-3 mg/kg. […] This very low and transient systemic exposure is consistent with the PK/PD model typical of irreversible inhibitors.
(§3) The duration of BTK occupancy was determined in rats and mice after single oral dose of compound (I) for spleen, blood, lymph nodes and lung. […] The longer persistence of BTK occupancy in blood has been reported before (Advani et al 2013, J Clin Onc; 31(1):88-94).

BTK [2] = assay: as above; design: species or system rat; settings: spleen of rodents
Method: as §1, §2, §3

[3] = First-in-human Part 3 food effect PK, single 60 mg dose; type: in vivo; settings: for Tmax / AUC(0-t): human, oral, 60 mg
Excerpt: First-in-human study in up to approximately 168 healthy volunteers (HVs), of which 64 (in Parts 2 & 4) had asymptomatic atopic diathesis. • Part 1 was a double-blind (subject and investigator blind, sponsor unblinded), placebo-controlled single ascending dose (SAD) escalation study of 10 cohorts (N=80) • Part 2 was a double-blind (subject and investigator blind, sponsor unblinded), placebo-controlled multiple ascending dose (MAD) (13 doses over 12 days) escalation study employing once daily dosing in 6 cohorts in healthy volunteers with asymptomatic atopic diathesis (N=48) • Part 3 was a single dose open-label crossover food effect study in 12 HVs • Part 4 was a double-blind (subject and investigator blind, sponsor unblinded), placebo-controlled multiple dose (25 doses over 12 days) study employing twice daily dosing in 2 cohorts of healthy volunteers with asymptomatic atopic diathesis (N=16)
Part 3 was an open-label, randomized, two-way cross-over, single dose study to assess food effects. In Part 3, each subject participated in a 28 day screening period (Day −29 to −2), 2 baseline (Day −1) and 2 treatment periods, each consisting of a single dose administration on Day 1 followed by safety and PK assessment up to Day 5. Treatment period 2 consisted of a follow-up visit and an end of study evaluation on Day 22 and 40, respectively. The two treatment periods were separated by a wash-out period of at least 18 days (+/−1 day).
Subjects were randomized to one of the 2 treatment sequences in the ratio of 1:1:
Pharmacokinetic samples were obtained in blood and evaluated in all subjects at all dose levels. The samples from placebo subjects were not analyzed. The samples for PK assessments from subjects were collected at time points defined in the study. Compound (I) concentrations were determined in blood by a validated LC-MS/MS method.

[4] = Blood exposure of compound (I) after oral dose in rats; type: in vivo; settings: female, rat, 1 mg/kg dose
Method: as §2

[5] = single dose 60 mg, FAST, Geomean
[6] = single dose 60 mg, FED, Geomean

- BTK occupancy in blood (BTK [1]; female rats, single oral dose): consistent with those observed in spleen
- spleen BTK occupancy (BTK [1]; female rats, single oral dose 3 mg/kg): full
- receptor occupancy at 0.3 mg/kg (BTK [1]; rat, female rats, single oral dose 0.3 mg/kg, read-out: spleen BTK occupancy): 30%
- receptor occupancy at 1 mg/kg (BTK [1]; rat, female rats, single oral dose 1 mg/kg, read-out: spleen BTK occupancy): 76 to 81%
- BTK occupancy half-life in blood (BTK [1]; rats, single oral dose): approximately 87 hours
- BTK occupancy half-life in spleen (BTK [1]; rats, single oral dose): approximately 5 hours
- Tmax ([3]; blood, fasted, read-out: mean Tmax): 1 h
- Tmax ([3]; blood, fed, read-out: mean Tmax): > 3 h
- AUC(0-t) ([3]; blood, single dose 60 mg, FAST, Geomean, read-out: AUC0-24): 182 ng·h/mL
- AUC(0-t) ([3]; blood, single dose 60 mg, FAST, Geomean, read-out: AUClast): 177 ng·h/mL
- AUC(0-t) ([3]; blood, single dose 60 mg, FAST, Mean, read-out: AUC0-24): 202 ng·h/mL
- AUC(0-t) ([3]; blood, single dose 60 mg, FAST, Mean, read-out: AUClast): 196 ng·h/mL
- Tmax ([3]; blood, single dose 60 mg, FED, Geomean, read-out: Tmax): 3.18 h
- Tmax ([3]; whole blood, single dose 60 mg, FAST, Geomean, read-out: Tmax): 0.95 h
- Tmax ([3]; whole blood, single dose 60 mg, FAST, Mean, read-out: Tmax): 1.02 h
- AUC(0-t) ([3]; whole blood, single dose 60 mg, FED, Geomean, read-out: AUC0-24): 249 ng·h/mL
- AUC(0-t) ([3]; whole blood, single dose 60 mg, FED, Mean, read-out: AUC0-24): 264 ng·h/mL
- AUC(0-t) ([3]; whole blood, single dose 60 mg, FED, Mean, read-out: AUClast): 252 ng·h/mL
- Tmax ([3]; whole blood, single dose 60 mg, FED, Mean, read-out: Tmax): 3.42 h
- Cmax [3, 5]: 100.95 ng/mL
- Tlast [3, 5]: 9.66 h
- Cmax ([3]; single dose 60 mg, FAST, Mean): 114.81 ng/mL
- Tlast ([3]; single dose 60 mg, FAST, Mean): 10.50 h
- AUClast [3, 6]: 237.84 ng·h/mL
- Cmax [3, 6]: 80.86 ng/mL
- Tlast [3, 6]: 9.25 h
- Cmax ([3]; single dose 60 mg, FED, Mean): 83.39 ng/mL
- Tlast ([3]; single dose 60 mg, FED, Mean): 9.50 h
- higher AUC0-24 fed vs fasted ([3]; single oral dose 60 mg): 1.4 fold
- lower Cmax fed vs fasted ([3]; single oral dose 60 mg): 1.25 fold
- concentration at 0.5 h ([4]; 0.5 hours post dose): 49.1 nM
- concentration at 5 h ([4]; 5 hours post dose): 5.6 nM
SMILES: C=CC(=O)N(C)CCOc1c(N)ncnc1-c1cc(F)cc(NC(=O)c2ccc(C3CC3)cc2F)c1C [Compound of Formula (I), N-(3-(6-Amino-5-(2-(N-methylacrylamido)ethoxy)pyrimidin-4-yl)-5-fluoro-2-methylphenyl)-4-cyclopropyl-2-fluorobenzamide]
- BTK turnover in tissue (spleen) (BTK [2]): approximately 5 hours
